The test system of assay [1] is Aspergillus flavus. Briefly: Antifungal activity against Aspergillus flavus. The format is functional.
The test system of assay [2] is Aspergillus niger. Briefly: Antifungal activity against Aspergillus niger. The format is functional.
For assay [3], the system named is Candida albicans. In words: Antifungal activity against Candida albicans. Type of assay: functional.
The subject of assay [4] is Alternaria solani. In words: Antifungal activity against Alternaria solani assessed as fungal inhibition rate at 100 ug/ml relative to control. Type of assay: functional.
Assay [5] deals with Alternaria alternata. In words: Antifungal activity against Alternaria alternata assessed as fungal inhibition rate at 100 ug/ml relative to control. The format is functional.
In assay [6] the test system is Botrytis cinerea. Briefly: Induction of morphological changes in Botrytis cinerea assessed as irregular mycelia at 0.5 ug/ml incubated for 6 days by SEM analysis. The format is functional, organism-based. To be noted: dose 0.5 µg/ml, time 6.0 day.
Assay [7] relates to Botrytis cinerea. In words: Fungicidal activity against Botrytis cinerea assessed as fungal inhibitory rate at 16 ug/ml relative to control. The format is functional.
The subject of assay [8] is Botrytis cinerea. Briefly: Induction of morphological changes in Botrytis cinerea assessed as uneven mycelia at 0.5 ug/ml incubated for 6 days by SEM analysis. Type of assay: functional, organism-based. The settings on record: dose 0.5 µg/ml, time 6.0 day.
Assay [9] has as its system Botrytis cinerea. In words: Fungicidal activity against Botrytis cinerea assessed as fungal growth reduction. The format is functional, organism-based.
Assay [10] has as its system Colletotrichum lagenaria. In words: Fungicidal activity against Colletotrichum lagenarium assessed as fungal inhibitory rate at 16 ug/ml relative to control. The format is functional.
Assay [11] deals with Botrytis cinerea. In words: Induction of morphological changes in Botrytis cinerea assessed as cracked cell structure at 0.5 ug/ml incubated for 6 days by TEM analysis. The settings on record: dose 0.5 µg/ml, time 6.0 day. The format is functional, organism-based.
Assay [12] concerns Botrytis cinerea. Briefly: Induction of morphological changes in Botrytis cinerea assessed as tangled mycelia at 0.5 ug/ml incubated for 6 days by SEM analysis. Type of assay: functional, organism-based. To be noted: dose 0.5 µg/ml, time 6.0 day.
In assay [13] the test system is Botrytis cinerea. In words: Inhibition of Botrytis cinerea CYP51 by fluorescent quenching analysis. The settings on record: dose <= 16.0 µg/ml.
Assay [14] relates to Botrytis cinerea. In words: Induction of morphological changes in Botrytis cinerea assessed as thin cell membrane at 0.5 ug/ml incubated for 6 days by TEM analysis. The format is functional, organism-based. The settings on record: dose 0.5 µg/ml, time 6.0 day.
Assay [15] relates to Botrytis cinerea. Briefly: Induction of morphological changes in Botrytis cinerea assessed as crinkly mycelia at 0.5 ug/ml incubated for 6 days by SEM analysis. To be noted: dose 0.5 µg/ml, time 6.0 day. Type of assay: functional, organism-based.
Assay [16] concerns Sclerotinia sclerotiorum. In words: Fungicidal activity against Sclerotinia sclerotiorum assessed as fungal inhibitory rate at 16 ug/ml relative to control. The format is functional.
The test system of assay [17] is Fusarium oxysporum. Briefly: Fungicidal activity against Fusarium oxysporum assessed as fungal inhibitory rate at 16 ug/ml relative to control. Type of assay: functional.
Assay [18] can be described thus: Inhibition of Botrytis cinerea CYP51 by ELISA.
The subject of assay [19] is Penicillium digitatum. Briefly: Fungicidal activity against Penicillium digitatum assessed as fungal inhibitory rate at 16 ug/ml relative to control. Type of assay: functional.
Assay [20] relates to Botrytis cinerea. In words: Induction of morphological changes in Botrytis cinerea assessed as thin cell wall at 0.5 ug/ml incubated for 6 days by TEM analysis. The format is functional, organism-based. The settings on record: dose 0.5 µg/ml, time 6.0 day.

Values after ≈ are worked out from the molar mass of the structure shown. Active and inactive are the calls of the source. No cut-off for these calls is given here.

With `CC1(C)CC(=O)C2=C(C1)OC(N)=C(C#N)C2c1ccc(F)cc1` (configuration not stated), the MIC in assay [1] and in assay [2] was 12.5 µg/mL (≈ 40 µM) each time.
Turning to `COC(=O)C1=C(C)OC(N)=C(C#N)C1c1ccc(F)cc1` (configuration not stated), the MIC in assay [1] and in assay [3] was 12.5 µg/mL (≈ 43.4 µM) in each case.
For `CCCC(Br)C(=O)Oc1ccc2c(c1)oc(=O)c1c(C)c(C(=O)OCC)c(C)nc12` (configuration not stated), the inhibition at 100 µg/mL in [4] stood at 40.7%; in assay [5] it was 44.6%.
Regarding `Fc1ccc([C@@]2(Cn3cncn3)O[C@@H]2c2ccccc2Cl)cc1`, the result in assay [6], in assay [8], in assay [11], in assay [12], in assay [14] and in [15] was Active. Further, in [20], the result was Active. Also, the inhibition at 16 µg/mL was 100% in [7]; 94.3% in [10]; 100% in [16]; 87.3% in assay [17]; 78.6% in [19]. Further, in assay [9], the EC50 was found to be 0.67 µg/mL (≈ 2.03 µM). In addition, the inhibition result in [13] was “Dose-Dependent Effect”. In addition, in [18], the IC50 came to 0.802 µg/mL (≈ 2.43 µM).
As to `COC(=O)C1=C(N)OC2=C(CN(C(=O)c3ccco3)C/C2=C\c2ccc(Br)o2)C1c1ccc(Br)o1` (configuration not stated), the result in assay [6], in assay [8], in assay [11], in assay [12], in [14] and in [15] was Active. In assay [20], the result was Active. Besides, the inhibition at 16 µg/mL in assay [7] came to 100%; in assay [10], 84.9%; in assay [16] it was 82.7%; in [17], 83.5%; in assay [19], 76%. For the same compound, the EC50 in assay [9] worked out at 0.53 µg/mL (≈ 0.874 µM). Besides, the inhibition result in assay [13] is “Dose-Dependent Effect”. This compound also came in with a 50% inhibitory concentration (IC50) in assay [18] of 0.611 µg/mL (≈ 1.01 µM).
`CCOC(=O)c1c(C)nc2c(c1C)c(=O)oc1c(OC(=O)C(Br)CC)cccc12` (configuration not stated): the inhibition at 100 µg/mL in assay [4] turned out to be 54.6%; in assay [5], 62.1%.
`Cc1cc(C)c2c(=O)oc3cc(OC(=O)C(C)Br)ccc3c2n1` (configuration not stated): the values for the inhibition at 100 µg/mL in assay [4] and in assay [5] were 52.4% and 41.6%, respectively.
Consider `CC1(C)CC(=O)C2=C(C1)OC(N)=C(C#N)C2c1ccco1` (configuration not stated), for which the MIC in assay [2] and in [3] was 12.5 µg/mL (≈ 44 µM) each time.
Consider `COc1ccc(NC(=O)c2cc3c(CO)cnc(C)c3o/c2=N\c2ccc(Cl)c(C)c2)cc1`, for which, in [3], it took 12.5 µg/mL (≈ 26.9 µM) to inhibit growth (MIC).
Consider `COC(=O)C1=C(N)OC2=C(CN(C(=O)c3ccco3)C/C2=C\c2ccco2)C1c1ccco1` (configuration not stated), for which the result in assay [6], in assay [8], in assay [11], in assay [12], in [14] and in assay [15] was Active. The result in [20] was Active. For the same compound, the inhibition at 16 µg/mL is 100% in [7]; 86.8% in assay [10]; 85% in [16]; 87.1% in assay [17]; 78.4% in assay [19]. The inhibition entry in assay [13] is “Dose-Dependent Effect”. The IC50 in assay [18] came out at 0.377 µg/mL (≈ 0.841 µM).
